Laboratory results taken from patent US20170327797A1, “R[…] CCCDNA, THE METHOD TO GENERATE THEREOF AND THE USE THEREOF” (priority 2015, published 2017).

Experiments:
[1] = test system: HBV (HBVcircle transfected HepG2 cells); assay: In vitro anti-HBV drug evaluation in HBVcircle transfected HepG2 cells; type: cell-based; details: treated 6 days
Procedure: X-[…] HP DNA transfection reagent (from Roche) was used for transfection. One day before transfection, cells were trypsinized and seeded onto plates, Cells were seeded at 0.8×10^5/well in 24 well plates for HepG2 and proliferation HepaRG cell line, and 3×10^5/well in 24 well plates for differentiated HepaRG cell line.
(§1) HBeAg or HBsAg were measured by using the HBeAg or HBsAg ELISA kit (from Autobio) according to the manufacturer's direction.
The transfected HepG2 cells were lysed using lysis buffer (50 mM Tris-HCl, pH8.0, 100 mM NaCl, 1% CA-630, 1×EDTA free proteinase inhibitor). After incubation at 4° C. for 1 h with agitation, cytoplasmic lysate was cleared by centrifugation. The lysate was separated by electrophoresis in 1.5% agarose gel and then transferred onto PVDF membrane (for Western blotting) or a positively charged nylon membrane (for southern blotting), for detecting the capsid protein and encapsidated DNA respectively.
After SDS-PAGE, gels were transferred to PVDF membrane by using iblot system (from Invitrogen). […]
The sample was loaded to an electrophoresis of 1.5% agarose gel in 1×TAE buffer for 2-3 hours. […] After incubating blots with an alkaline-phosphatase-conjugated anti-DIG antibody, hybridization signals were detected in a standard chemiluminescence reaction.
Next, the feasibility of evaluating anti-HBV drugs using HBVcircle system in cell culture models was assessed. […]

[2] = test system: HBV (HBVcircle injected C3H/HeN mice); assay: In vivo anti-HBV drug evaluation in HBVcircle HDI mice; details: 10 μg HBVcircle, 0.03mg/kg QD orally for 29 days from day 23
Procedure: The animals were grouped based on Day-1 body weights. On Day 0, all animals were subjected to hydrodynamic injection through tail vein within 5 seconds with 2.5-20 μg DNA in a volume (mL) of saline equivalent to 8% of body weight (g) (Liu, et al., 1999, Gene Ther, 6: 1258-66, Zhang, et al., 1999, Hum Gene Ther, 10: 1735-7). After animal exclusion due to technical failure of hydrodynamic injection or low HBV marker expression on Day 1 or Day 3, the remaining mice were maintained for long term evaluation. Blood samples were collected for serum preparation on indicated time post HDI injection.
For compound treatment, on Day 20 post HDI (DAY-3 of compound treatment), C3H/HeN mice were divided into 4 groups based on serum HBsAg levels and body weights on DAY 20. ETV and R848 were diluted in saline from stock solutions on treatment days. Vehicle was RC591. All test compounds were given orally with indicated dose and frequency.
as §1
HBV DNA in cell culture supernatant or mouse serum was extracted using MagNA Pure 96 System MagNA Pure 96 System (from Roche). HBV DNA levels were determined via RT-PCR. The primer and probe sequences are shown below. […]

In the case of `C=C1[C@H](CO)[C@@H](O)C[C@@H]1n1cnc2c(=O)[nH]c(N)nc21` [ETV, Entecavir], the “HBV DNA replication (encapsidated HBV DNA, southern blot)” value [1] is reported as “efficiently blocked HBV DNA replication in a dose dependent manner”, the “other viral proteins expression” value [1] is reported as “did not affect other viral proteins expression” and the “HBV DNA in serum” value [2] is reported as “efficiently reduced HBV DNA in serum to undetectable level”.
